According to ChEMBL document CHEMBL5137041, “Total Syntheses and Cytotoxicity Evaluation of Coryaurone A and Representative Analogues” (J Nat Prod, 2022):

Tests used:
[1] = system: HL-60; assay: Cytotoxicity against human HL-60 cells assessed as cell growth inhibition incubated for 48 hrs by MTS assay; format: functional, cell-based; conditions: HL-60, 48 h
[2] = system: SW480; assay: Cytotoxicity against human SW480 cells assessed as cell growth inhibition incubated for 48 hrs by MTS assay; format: functional, cell-based; conditions: SW480, 48 h

Row | Structure (SMILES) | IC50 [1] [µM] | IC50 [2] [µM]
1 | CC(C)(O)[C@H]1Cc2c(ccc3c2O/C(=C\c2ccc(O)c(O)c2)C3=O)O1 | 18 | 13
2 | CC(C)(O)[C@H]1Cc2c(ccc3c2O/C(=C\c2cccc4cccnc24)C3=O)O1 | > 40 | > 40
3 | CC(C)(O)[C@H]1Cc2c(ccc3c2O/C(=C\c2ccc(Cl)cc2)C3=O)O1 | > 40 | 7.7
4 | COc1ccc(/C=C2\Oc3c(ccc4c3C[C@H](C(C)(C)O)O4)C2=O)cc1 | > 40 | > 40
5 | CC(C)(O)[C@H]1Cc2c(ccc3c2O/C(=C\c2ccc(O)c(Cl)c2)C3=O)O1 | 14 | 35
6 | CC(C)(O)[C@H]1Cc2c(ccc3c2O/C(=C\c2ccco2)C3=O)O1 | 28 | 39
7 | CC(C)(O)[C@H]1Cc2c(ccc3c2OCC3=O)O1 | > 40 | > 40
8 | CC(C)(O)[C@H]1Cc2c(ccc3c2OC(Cc2ccc(O)c(O)c2)C3)O1 (stereo not given in full) | > 40 | > 40
9 | CC(C)(O)[C@H]1Cc2c(ccc3c2O/C(=C\c2ccc(O)c(C(=O)O)c2)C3=O)O1 | > 40 | > 40
10 | Cc1cc(/C=C2\Oc3c(ccc4c3C[C@H](C(C)(C)O)O4)C2=O)ccc1O | > 40 | 11
11 | CC(C)(O)[C@H]1Cc2c(ccc3c2O/C(=C\c2ccc(O)cc2)C3=O)O1 | > 40 | > 40
12 | COc1ccc(/C=C2\Oc3c(ccc4c3C[C@H](C(C)(C)O)O4)C2=O)cc1O | 3.9 | 20
13 | CC(C)(O)[C@H]1Cc2c(ccc3c2O/C(=C\c2ccc(C(F)(F)F)cc2)C3=O)O1 | 16 | > 40
14 | CC(C)(O)[C@H]1Cc2c(ccc3c2O/C(=C\c2ccccc2)C3=O)O1 | > 40 | > 40
15 | CC(C)(O)[C@H]1Cc2c(ccc3c2O/C(=C\c2cc([N+](=O)[O-])ccc2O)C3=O)O1 | 12 | 23
16 | CC(C)(O)[C@H]1Cc2c(ccc3c2O/C(=C\c2ccc([N+](=O)[O-])cc2)C3=O)O1 | > 40 | 9.2
17 | CC(C)(O)[C@H]1Cc2c(ccc3c2O/C(=C\c2ccc4[nH]ccc4c2)C3=O)O1 | > 40 | > 40
18 | CC(C)(O)[C@H]1Cc2c(ccc3c2O/C(=C\c2cccs2)C3=O)O1 | > 40 | > 40
19 | COc1cc(/C=C2\Oc3c(ccc4c3C[C@H](C(C)(C)O)O4)C2=O)cc(OC)c1OC | 22 | > 40
20 | CC(C)=CCc1c(O)ccc2c1O/C(=C\c1ccc(O)c(O)c1)C2=O [LICOAGROAURONE] | 19 | 8.2
